Laboratory results taken from patent publication US11982667B2, “Platelet aggregation capacity analyzer, analysis method, and analysis system using complex dielectric permittivity” (SONY CORPORATION, priority 2018, dated 2024).

Columns and labels:
[1] = system: platelets in whole blood (ADP pathway); assay: DBCM platelet assay (ADP pathway), activation residual rate AR3 by Method 3; type: cell-based, human; conditions: citrated whole blood of healthy volunteers spiked with ticagrelor; final blood concentration 400 nM and above; ADP 13 μM; DCS74 feature value
Protocol: In this experiment, the operating sequence of the dielectric coagulation analyzer experimental machine developed for dielectric blood coagulometry (also simply herein referred to as “DBCM”) was used with some modifications to realize a platelet assay.
When the measurement is started, 200 μL of citric acid-added blood sample is dispensed into a disposable cartridge into which a reagent(s) has been introduced in advance, and the mixture is mixed and stirred by automatic pipetting with a suction volume of about 200 μL. […]
Immediately after the completion of stirring, the dielectric permittivity measurement was started, and a change in the blood dielectric permittivity associated with blood coagulation was recorded at a measurement frequency of from 10 kHz to 10 MHz, a measurement time of 60 min, and a measurement time interval of 5 sec. […]
Meanwhile, in Methods 1 and 2, the response upper limit was obtained when the measurement was conducted without adding any agonist experimentally. […] In this regard, however, the ideal measured value should be obtained when 215 mM lyophilized calcium chloride reagent without any agonist is used and the number of stirring operations is changed to 5 times which is the minimum so as to prevent some of the platelets from being activated and reacted due to stirring-induced shear stress. […]

[2] = single oral administration of 200 mg; cited from earlier work

Structure (SMILES): CCCSc1nc(N[C@@H]2C[C@H]2c2ccc(F)c(F)c2)c2nnn([C@@H]3C[C@H](OCCO)[C@@H](O)[C@H]3O)c2n1 [ticagrelor]
- platelet activation residual rate AR3 (%) [1]: ≤ 30%
- maximum plasma concentration [2]: 923 ng/mL
